Here are results for 2 molecules from patent US6423853B1, “Continuous ozonolysis of cycloalkenes into ozonides” (E. I. du Pont de Nemours & Comp., priority 2001, dated 2002).

The conditions of data set [1]: disclosed in Maggiolo patent; cited from earlier work.
Data set [2] is described as follows: solubility in propionic acid. The following applies: using cyclododecene in the present process.
Procedure: A reactor system consisting of a jacketed 1 inch, 10 tray glass Oldershaw column, 250 cc bottom receiver, feed pump, and recycle pump were assembled. The initial feed material consisted of 102 g. of propionic acid solvent and 18 g. of cyclododecene. 120 g. of the initial feed material were charged into the reactor system. The temperature of the jacket on the Oldershaw column was adjusted to 20° C. and a recycle flow of 50 cc/min. was established using the recycle pump. An ClearWater Tech modelM-1500 ozone generator was attached to the system. A carrier gas consisting of 20% oxygen in carbon dioxide was fed to the reactor at 2000 cc/min. The gas exit the ozone generator was measured to contain 0.80% ozone. […] At that point, the additional 18 g. of pure CDDM solution was fed to the top of the column at a rate of 00.15 cc/min. The balance between the ozone and the cyclododecene fed allowed an excess of ozone in the reactor off gas at all times.

`C1=CCCCCCC1` [cyclooctene]: the “solubility in isobutyric acid” value in data set [1] is recorded as 20%.
On to `C1CCCCCC2OOC(CCCC1)O2` [ozonide, cyclododecene ozonide], for which, in data set [2], the “ozonide solubility in propionic acid” value was “about 27.5%”.
